Reference: patent US5908868A, “Retinol derivatives useful for enhancing immune response” (priority 1995, dated 1999)
Entries after “also recorded” stand apart in the source; their conditions may differ.

Columns and labels:
CD4+ T lymphocytes = test: Proliferation of anti-CD3 activated CD4+ T lymphocytes; type: cell-based, BALB/c mouse
Excerpt: Growth curves of lymph node T cells depleted of antigen-presenting cells (FIG. 17A) with and without 10^-6 M retinol at 2×10^5 and 5×10^4 cells/well. (FIG. 17B) Dose-responses elicited by different retinoids in cultures of lymph node T cells depleted of antigen-presenting cells. Also shown are the growth curves of CD4^+ (FIG. 17C) and CD8^+ T lymphocytes (FIG. 17D) in the presence of either retinol, 14HRR, human serum or in their absence.
T lymphocytes, purified as described, 5×10^4 well, were activated with immobilized anti-CD3 antibody in ITLB medium. The indicated amounts of retinoids or human serum were added at initiation of cultures. […] 14HRR was added every 12 hours. DNA synthesis was measured by a 4 hour pulse with tritiated thymidine. SDs were ≤17%.
The cell suspension in a volume of 2 ml was applied to a nylon wool column (40) (0.6 g of washed nylon fibers in the barrel of a 10 ml syringe) and incubated at 37° C. for 40 min. The non-adherent cells were recovered by washing with warm serum-free medium at a flow rate of 1 ml/min. […] The success of the enrichment procedures was monitored cytofluorimetrically using FITC-conjugated anti-CD8 and PE-conjugated anti-CD4. […]

T cells = test: T cell activation/proliferation; type: cell-based, murine; conditions: for T cell activation on its own: without mitogen; for substitution for retinol in T cell activation: with mitogen/anti-CD3
Description: They were seeded into 96-well flat-bottom plates at varying cellular densities in a final volume of 100 μl. In control experiments, cells were cultured in medium containing 10% FCS or 3% human serum and 5×10^-5 M 2 ME. […] Cultures were carried out in duplicate. Plates were incubated at 37° C. in a humidified 5% CO2 atmosphere. Cellular proliferation was determined by [^3 H] thymidine uptake (0.5 uCi/well; New England Nuclear, Boston, Mass.) after the incubation times indicated for each experiment with a 4 hour labeling pulse. Cells were harvested onto glass filter and [^3 H]TdR incorporation was determined by liquid scintillation counting. The data presented are the means of duplicate or six replicate cultures. The restriction to duplicate measurements was necessary to conserve scarce 14HRR. […] Each experiment was repeated at least twice.

Compound	response to activating signal (CD4+ T lymphocytes)	activation in FCS-containing medium in absence of APC (T cells; additional retinol supplied, FCS medium)	optimally effective dose (T cells; given once in a 3-day culture) [µM]	optimally effective dose (T cells; provided at 12 hour intervals) [µM]	T cell activation on its own (T cells)	activity relative to all-trans retinol in T cells (T cells)	substitution for retinol in T cell activation (T cells)	substitution for retinol in T cell activation (T cells; listed as 14-hydroxy-retro-retinol)
CC1=C(/C=C/C(C)=C/C=C/C(C)=C/CO)C(C)(C)CCC1 [retinol, all-trans retinol]	responded to the activating signal	no activation	2	0.2	unable to activate T cells on their own	–	–	–
CC(C=CC=C(C)C(O)CO)=CC=C1C(C)=CCCC1(C)C (stereo not shown) [14HRR, 14-hydroxy-4,14-retro-retinol]	responded to the activating signal	–	–	–	unable to activate T cells on their own	as active	capable of supporting T cell activation and proliferation	effectively supports T cell activation in conjunction with a mitogen in lieu of retinol; also recorded: capable of supporting activation and sustaining proliferation of T cells
